Measurements: PubChem BioAssay (NCI)
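48-hour exposure; five concentrations; linearly interpolated endpoints. Abbreviation: GI50, concentration required for 50% inhibition of growth. TGI denotes the concentration required for complete inhibition of growth.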

Experiments:
Assay in all cases: NCI tumour cell line growth inhibition, 48 h
[1] = test system: SK-OV-3 ovarian
[2] = test system: OVCAR-4 ovarian
[3] = test system: UO-31 renal
[4] = test system: LOX IMVI melanoma
[5] = test system: NCI-H226 lung
[6] = test system: CAKI-1 renal
[7] = test system: MDA-MB-468 breast
[8] = test system: OVCAR-3 ovarian
[9] = test system: RPMI-8226 leukemia
[10] = test system: MCF7 breast
[11] = test system: PC-3 prostate
[12] = test system: A549 NSCLC
[13] = test system: SF-268 CNS
[14] = test system: SNB-19 CNS
[15] = test system: SN12C renal
[16] = test system: SK-MEL-2 melanoma
[17] = test system: MDA-MB-435
[18] = test system: HCT-116 colon
[19] = test system: DU-145 prostate
[20] = test system: HCC-2998 colon
[21] = test system: UACC-62 melanoma
[22] = test system: SF-539 CNS
[23] = test system: SW-620 colon
[24] = test system: U251 CNS
[25] = test system: 786-0 renal
[26] = test system: T-47D breast
[27] = test system: SK-MEL-28 melanoma
[28] = test system: SF-295 CNS
[29] = test system: M14 melanoma
[30] = test system: MOLT-4 leukemia
[31] = test system: HOP-62 NSCLC
[32] = test system: UACC-257 melanoma
[33] = test system: HT29 colon
[34] = test system: COLO 205 colon
[35] = test system: RXF 393 renal
[36] = test system: CCRF-CEM leukemia
[37] = test system: TK-10 renal
[38] = test system: NCI-H460 lung
[39] = test system: KM12 colon
[40] = test system: SR leukemia
[41] = test system: HS 578T breast
[42] = test system: MDA-MB-231 breast
[43] = test system: SNB-75 CNS
[44] = test system: K-562 leukemia
[45] = test system: NCI-H522 lung
[46] = test system: IGROV1 ovarian
[47] = test system: NCI-H23 lung
[48] = test system: A498 renal
[49] = test system: NCI/ADR-RES ovarian
[50] = test system: OVCAR-5 ovarian
[51] = test system: BT-549 breast
[52] = test system: EKVX NSCLC
[53] = test system: OVCAR-8 ovarian
[54] = test system: HL-60(TB) leukemia
[55] = test system: HCT-15 colon
[56] = test system: HOP-92 NSCLC
[57] = test system: MALME-3M melanoma
[58] = test system: SK-MEL-5 melanoma
[59] = test system: ACHN renal

CNS(=O)(=O)N1CCc2c(Br)c3c(c(OC)c2C1CCc1ccccc1)OCO3 (stereo not drawn)
GI50 [1]: 20.9 µM | TGI [1]: 73.6 µM | GI50 [2]: 14.7 µM | TGI [2]: 85 µM | GI50 [3]: 10.2 µM | TGI [3]: 69.1 µM | GI50 [4]: 10.1 µM | TGI [4]: 23.5 µM | GI50 [5]: 10.8 µM | TGI [5]: 25.8 µM | GI50 [6]: 7.25 µM | TGI [6]: > 100 µM | GI50 [7]: 9.95 µM | TGI [7]: 35.5 µM | GI50 [8]: 13.7 µM | TGI [8]: 29.9 µM | GI50 [9]: 12.4 µM | TGI [9]: > 100 µM | GI50 [10]: 16.6 µM | TGI [10]: 90.7 µM | GI50 [11]: 5.67 µM | TGI [11]: > 100 µM | GI50 [12]: 14.7 µM | TGI [12]: > 100 µM | GI50 [13]: 16.8 µM | TGI [13]: > 100 µM | GI50 [14]: 23.8 µM | TGI [14]: > 100 µM | GI50 [15]: 11.6 µM | TGI [15]: 24.7 µM | GI50 [16]: 14.5 µM | TGI [16]: 30.7 µM | GI50 [17]: 12.5 µM | TGI [17]: 31.3 µM | GI50 [18]: 6.64 µM | TGI [18]: 26.3 µM | GI50 [19]: 29.2 µM | TGI [19]: > 100 µM | GI50 [20]: 18.4 µM | TGI [20]: 75.7 µM | GI50 [21]: 6.4 µM | TGI [21]: 21.4 µM | GI50 [22]: 15.2 µM | TGI [22]: 30.1 µM | GI50 [23]: 21.8 µM | TGI [23]: > 100 µM | GI50 [24]: 15.6 µM | TGI [24]: 35.6 µM | GI50 [25]: 19.6 µM | TGI [25]: 62.5 µM | GI50 [26]: 9.48 µM | TGI [26]: 67.4 µM | GI50 [27]: 15.7 µM | TGI [27]: 31.1 µM | GI50 [28]: 11.1 µM | TGI [28]: 31.8 µM | GI50 [29]: 12.2 µM | TGI [29]: 34 µM | GI50 [30]: 10.4 µM | TGI [30]: > 100 µM | GI50 [31]: 13.5 µM | TGI [31]: 37.5 µM | GI50 [32]: 20.9 µM | TGI [32]: 51.5 µM | GI50 [33]: 18.7 µM | TGI [33]: > 100 µM | GI50 [34]: 14.9 µM | TGI [34]: 30.7 µM | GI50 [35]: 13.5 µM | TGI [35]: 31.4 µM | GI50 [36]: 24.3 µM | TGI [36]: > 100 µM | GI50 [37]: 34.4 µM | TGI [37]: > 100 µM | GI50 [38]: 13.7 µM | TGI [38]: 30.1 µM | GI50 [39]: 19.4 µM | TGI [39]: 78.1 µM | GI50 [40]: 24 µM | TGI [40]: > 100 µM | GI50 [41]: 12.7 µM | TGI [41]: 42 µM | GI50 [42]: 7.33 µM | TGI [42]: 22.3 µM | GI50 [43]: 4.24 µM | TGI [43]: 34.5 µM | GI50 [44]: 17.3 µM | TGI [44]: > 100 µM | GI50 [45]: 13 µM | TGI [45]: 38.7 µM | GI50 [46]: 14.1 µM | TGI [46]: 81.6 µM | GI50 [47]: 17 µM | TGI [47]: 72.4 µM | GI50 [48]: 15.7 µM | TGI [48]: 34.6 µM | GI50 [49]: 14 µM | TGI [49]: 86.9 µM | GI50 [50]: 14.1 µM | TGI [50]: 33.8 µM | GI50 [51]: 15.4 µM | TGI [51]: 30 µM | GI50 [52]: 14.1 µM | TGI [52]: > 100 µM | GI50 [53]: 24.6 µM | TGI [53]: > 100 µM | GI50 [54]: 22.9 µM | TGI [54]: 61.9 µM | GI50 [55]: 23.1 µM | TGI [55]: > 100 µM | GI50 [56]: 11.4 µM | TGI [56]: 33.4 µM | GI50 [57]: 17.8 µM | TGI [57]: 34.8 µM | GI50 [58]: 15.4 µM | TGI [58]: 28.8 µM | GI50 [59]: 20.3 µM | TGI [59]: 92.2 µM
